In test [1] the test system is rat models with glaucoma induced by NMDA. As to the kind of experiment: Protective effect for retinal ganglion cells against nerve damage by NMDA (thickness of inner plexiform layer). It counts as in vivo, Sprague-Dawley (SD) rats. The following applies: once per day. The text has this:
In recent years the glutamate analogue NMDA (N-methyl-D-aspartate) has been widely reported to be one of causative agents of neurodegenerative diseases including Alzheimer's disease. In the ophthalmic field, NMDA is considered to be involved in optic nerve damage in glaucoma (Brain Research Bulletin, 81 (2010) 349-358). Accordingly, in this experiment rat models with glaucoma induced by NMDA were used to evaluate the neuroprotective effect of GGA.
To Sprague-Dawley (SD) rats, the all-trans form, the 5Z-mono-cis form and teprenone were separately pre-administered by oral administration (Test Example 1), intravitreal administration (Test Example 2) or ocular instillation administration (Test Example 3) and 5 μL of NMDA was administered into the vitreous body to induce nerve damage. For Test Example 2, a marketed therapeutic eye drop for glaucoma, AIPHAGAN (trade name), was intravitreally administered as a positive control once a day for five days. For each of Test Examples, a base not containing GGA or AIPHAGAN was administered as a control in the same manner as described above.
The dosage and regimen of Test Examples 1 to 3 are shown in Table 1 and the constitution of the base used in each tests are shown in Table 2.
Three days after administration of NMDA, the eyeballs were harvested, fixed with half Karnovsky's fixative for 24 hours, embedded in paraffin, thin sectioned and stained with hematoxylin-eosin (HE) to prepare histopathological sections. The histological sections were observed under an optical microscope and the thickness (μm) of the inner plexiform layer (IPL) of the retina was measured. From the thickness of the inner plexiform layer (IPL) of the retina, the neuroprotective effects of the test preparations were evaluated.

The next test relates to PC12. As to the kind of experiment: Protective effect against ischemic cell death induced by hypoxia and low glucose (cell viability, Cell Titer-Glo). The following applies: 30 μM, 2 h, then low glucose, zero percent O2, 8 h, FIG. 1, Tukey-Kramer test. The test is classed as cell-based, rat. The text has this: The progress of visual impairment in glaucoma is associated with retinal ganglion cell (RGC) death due to blood flow failure occurring near the optic nerve (Folia Pharmacol. Jpn. 128, 255-258 (2006)). With the use of PC12, which is a typical neural cell line established from rat adrenal […] pheochromocytoma and used also as a model cell for the functional evaluation of RGC (J Neurosci Res. 2000 May 15; 60(4): 495-503.), the cytoprotective effect of GGA against ischemic cell death induced by hypoxia and low glucose was evaluated.
Test samples were prepared as follows. The test substances were four types of GGAs that contain the all-trans form and the 5Z-mono-cis form at a weight ratio of 10:0, 8:2, 6:4, and 0:10, respectively. […]
After 8 hours of incubation, 100 μL of an equivalent mixture of a cell viability detection reagent Cell Titer-Glo (Promega) and PBS was added to each well and the luminescence produced by the reaction with ATP in living cells was measured with a luminometer (GloMax; Promega). The cell viability was calculated from the measured luminescence by the following formula and the cytoprotective effect of GGA against […] was examined.
Cell viability (%)=100×[(luminescence of base- or GGA-treated group)/(luminescence of non-treated group)]

The subject of test [2] is multiple sclerosis mouse model. The conditions noted are these: oral administration; Non Patent Literature 5; cited from earlier work.
For a further test, the system named is glaucoma rat model. The conditions noted are these: intraperitoneal administration; Non Patent Literature 2; cited from earlier work.
Test [3] has as its system retinal detachment-induced animal. The conditions noted are these: intraperitoneal administration; Non Patent Literature 1; cited from earlier work.
The subject of test [4] is mouse with retinal injury induced by ischemia. The conditions noted are these: oral administration; Non Patent Literature 4; cited from earlier work.
The test system of test [5] is mouse with visual cell damage induced by light irradiation. The conditions noted are these: oral administration; Non Patent Literature 3; cited from earlier work.
[6] abbreviates: Test Example 1: oral, 800 mg/kg, 2 days, NMDA 4 mM, FIG. 6.

The source of these data is patent US20140350119A1, “OPHTHALMIC COMPOSITION COMPRISING GERANYLGERANYLACETONE” (ROHTO PHARMACEUTICAL CO., LTD., priority 2012, published 2014).

`CC(=O)CC/C=C(/C)CC/C=C(\C)CC/C=C(\C)CCC=C(C)C` [5Z-mono-cis form, (5Z,9E,13E)-6,10,14,18-tetramethyl-5,9,13,17-nonadecatetrae n-2-one]: the “Neuroprotective effect against nerve damage by NMDA compared with the base (IPL thickness)” value in test [1] (setting [6]) is listed as “significant neuroprotective effects”; in test [1] (Test Example 2: intravitreal, 0.05% w/v, 5 days, NMDA 40 mM, FIG. 7) it was “significant neuroprotective effects”. Also, the “Cytoprotective effect compared with GGA of weight ratio 6:4” value in the test on PC12 is “significantly higher cytoprotective effects”.

Turning to teprenone, in test [2], the “Cell loss in the ganglion” value was “prevented cell loss”, the “Number of degenerating axons in the optic nerve” value is “reduced the number of degenerating axons” and the Visual function entry was “improved the visual function”. For the same compound, in the test with glaucoma rat model, the “Expression of heat shock protein 72” value is listed as “induced the expression of heat shock protein 72”, the Optic nerve damage entry was “ameliorated optic nerve damage” and the “Retinal ganglion cell death” value was “reduced retinal ganglion cell death”. Moreover, in test [3], the “Apoptosis of visual cells” value is on record as “reduced the apoptosis of visual cells significantly” and the “Expression of heat shock protein 70” value is recorded as “induced the expression of heat shock protein 70”. In addition, in test [4], the “Number of surviving retinal neurons” value is recorded as “significantly increased”. For the same compound, the “Neuroprotective effect against nerve damage by NMDA compared with the base (IPL thickness)” value in test [1] (setting [6]) is recorded as “did not show a significant neuroprotective effect”. Besides, the “Thioredoxin and heat shock protein 72 in the retinal pigment epithelium” value in test [5] is “induced thioredoxin and heat shock protein 72”.
